Values of other authors in patent US10441617B2, “Breeding, production, processing and use of medical cannabis” (priority 2013, dated 2019).
Like-named read-outs stand apart in the source and are kept apart here.

Legend:
[1] = target: cannabinoid receptor CB1 (Homo sapiens, UniProt P21554)
[2] = target: CB2 receptor (Homo sapiens, UniProt P34972)
[3] = target: GPR55 (Homo sapiens, UniProt Q9Y2T6)
[4] = target: T1, 5-HT1A receptor (Homo sapiens, UniProt P08908)
T1 sequence (P08908 1-422): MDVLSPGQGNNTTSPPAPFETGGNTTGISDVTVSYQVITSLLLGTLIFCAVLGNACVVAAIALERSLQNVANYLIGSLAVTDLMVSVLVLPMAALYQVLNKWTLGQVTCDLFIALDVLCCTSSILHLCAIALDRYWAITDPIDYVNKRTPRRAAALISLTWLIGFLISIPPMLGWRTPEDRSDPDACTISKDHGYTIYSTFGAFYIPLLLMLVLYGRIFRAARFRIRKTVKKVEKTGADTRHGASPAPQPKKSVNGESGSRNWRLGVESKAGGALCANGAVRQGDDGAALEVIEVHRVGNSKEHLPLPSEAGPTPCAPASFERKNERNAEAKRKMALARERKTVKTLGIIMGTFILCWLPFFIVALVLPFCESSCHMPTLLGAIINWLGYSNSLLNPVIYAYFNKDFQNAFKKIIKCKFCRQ

[5] = CBD 1-10 mg/kg IP over 21 days with equivalent doses of delta-9-THC
[6] = system: Mu and Delta opioid receptor sites
[7] = system: aggressive human breast cancer cells; settings: in vitro
[8] = system: α2-adrenergic receptor

Chain of cannabinoid receptor CB1 (P21554 whole entry): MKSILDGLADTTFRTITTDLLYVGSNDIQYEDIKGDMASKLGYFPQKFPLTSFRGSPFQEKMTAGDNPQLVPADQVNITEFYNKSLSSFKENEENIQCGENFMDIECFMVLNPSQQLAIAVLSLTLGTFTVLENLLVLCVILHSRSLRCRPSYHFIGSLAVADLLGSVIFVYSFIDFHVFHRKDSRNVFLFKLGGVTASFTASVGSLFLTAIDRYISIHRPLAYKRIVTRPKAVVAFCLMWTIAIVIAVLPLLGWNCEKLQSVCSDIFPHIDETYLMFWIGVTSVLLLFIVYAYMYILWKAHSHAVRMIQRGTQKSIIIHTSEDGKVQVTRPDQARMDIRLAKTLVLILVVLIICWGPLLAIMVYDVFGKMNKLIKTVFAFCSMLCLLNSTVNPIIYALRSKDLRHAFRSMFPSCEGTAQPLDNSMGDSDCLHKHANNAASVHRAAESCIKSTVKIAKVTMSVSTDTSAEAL
Chain of CB2 receptor (P34972 whole entry): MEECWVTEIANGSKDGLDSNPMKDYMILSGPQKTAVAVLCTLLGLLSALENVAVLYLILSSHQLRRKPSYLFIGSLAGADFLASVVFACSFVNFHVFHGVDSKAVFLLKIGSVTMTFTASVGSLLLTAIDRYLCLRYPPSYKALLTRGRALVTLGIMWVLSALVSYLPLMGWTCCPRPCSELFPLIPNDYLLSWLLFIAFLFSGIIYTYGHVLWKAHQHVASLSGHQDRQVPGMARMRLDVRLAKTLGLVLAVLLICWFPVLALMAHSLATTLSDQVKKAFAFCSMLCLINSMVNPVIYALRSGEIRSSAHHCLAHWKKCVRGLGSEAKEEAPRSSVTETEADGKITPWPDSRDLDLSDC
Chain of GPR55 (Q9Y2T6 whole entry, species assumed): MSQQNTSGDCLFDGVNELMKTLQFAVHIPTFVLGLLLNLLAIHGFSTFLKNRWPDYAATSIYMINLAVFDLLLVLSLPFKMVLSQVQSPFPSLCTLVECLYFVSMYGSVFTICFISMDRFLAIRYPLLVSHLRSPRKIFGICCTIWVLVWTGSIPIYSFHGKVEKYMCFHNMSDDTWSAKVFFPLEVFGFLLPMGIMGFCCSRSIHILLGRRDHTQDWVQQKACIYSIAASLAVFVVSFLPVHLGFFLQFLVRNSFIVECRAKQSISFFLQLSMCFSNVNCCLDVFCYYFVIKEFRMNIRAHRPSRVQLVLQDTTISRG

## CCCc1cc(O)c2c(c1)OC(C)(C)[C@@H]1CCC(C)=C[C@@H]21 [THCV, Tetrahydrocannabivarin]
[1]
  Activity at CB1 receptor: CB1 receptor antagonist

## CCCCCc1cc(O)c2c(c1)OC(C)(C)c1ccc(C)cc1-2 [CBN, Cannabinol]
[2]
  Activity at CB2 receptor: weak agonist
[1]
  Activity at CB1 receptor: weak agonist

## C=C(C)[C@@H]1CCC(C)=C[C@H]1c1c(O)cc(CCCCC)cc1O [CBD, Cannabidiol]
Ratio of CBD/delta-9-THC 1.8
  Effect of CBD on the effects of delta-9-THC: enhanced the effects of delta-9-THC
Ratio of CBD/delta-9-THC around 8.1
  Effect of CBD on the effects of delta-9-THC: antagonistic effects
[2]
  Activity at CB2 receptor: no affinity
[3]
  Activity at GPR55: antagonist
[1]
  Activity at CB1 receptor: no affinity
[4]
  Activity at 5-HT1A receptor: 5-HT1A receptor agonist
[5]
  Behavioral effects of delta-9-THC: augmented the anxiogenic and locomotor suppressant effects and social interaction deficits
  Blood and brain levels of delta-9-THC: increased blood and brain levels
[6]
  Activity at Mu and Delta opioid receptor sites: allosteric modulator
[7]
  Growth of aggressive human breast cancer cells: reduces growth

## CCCCCc1cc(O)c2c(c1)OC(C)(C)[C@@H]1CCC(C)=CC21 (stereo partly drawn) [THC, delta-9-tetrahydrocannabinol]
[2]
  Activity at CB2 receptor: partial agonist activity

## CCCCCc1cc(O)c(C/C=C(\C)CCC=C(C)C)c(O)c1 [CBG, Cannabigerol]
[2]
  Activity at CB2 receptor: binds to the CB2 receptor
[8]
  Activity at α2-adrenergic receptor: high affinity α2-adrenergic receptor agonist
[1]
  Activity at CB1 receptor: low affinity CB1 receptor antagonist
[4]
  Activity at 5-HT1A receptor: moderate affinity 5-HT1A receptor antagonist
